Measurements reported in ChEMBL document CHEMBL2331314, “Dorsamin-A's, glycerolipids carrying a dehydrophenylalanine ester moiety from the seed-eating larvae of the bruchid beetle Bruchidius dorsalis” (J Nat Prod, 2013).

Assay: Antioxidant activity assessed as concentration required to 50 % ABTS radical scavenging activity absorbance at 734 nm
Format: functional
Work on `Cc1c(C)c2c(c(C)c1O)CCC(C)(C(=O)O)O2` (stereo not given) yielded an Activity of 19 µM.
Compound `CCCCCCCC/C=C/CCCCCCCC(=O)OC[C@H](COC(=O)/C(N)=C/c1ccccc1)OC(=O)CCCCCCC/C=C/CCCCCCCC` has an Activity of 11 µM.
Compound `COC(=O)C(=O)Cc1ccccc1` has an Activity of 8.8 µM.
For `COC(=O)/C=C/c1ccccc1`, the Activity was > 1000 µM.
With `COC(=O)/C(N)=C/c1ccccc1` the Activity was 9.6 µM.
